Measurements reported in publication PMC9281440, “In Vivo Distribution and Therapeutic Efficacy of Radioiodine-Labeled pH-Low Insertion Peptide Variant 3 in a Mouse Model of Breast Cancer” (Molecular Imaging, 2022).
Read-outs that look alike come from different tables or passages of the source. Peptide text beside a SMILES is read from it.

Experiments:
[1] = Micro-SPECT/CT imaging and distribution of 125I-labeled pHLIPs; assay type: in vivo; details: female, mouse, total radioactivity, 4T1 tumor-bearing nude mice, 3.7 MBq iv, micro-SPECT/CT ROI, mean ± SD, n = 4; for tissue uptake at 4 h: 4 h pi; for tissue uptake at 24 h: 24 h pi; for tissue uptake at 48 h: 48 h pi; for tissue uptake at 1 h: 1 h pi; for tissue uptake at 2 h: 2 h pi
Experimental: Five-week-old female athymic BALB/c nude mice (Shanghai Slaccas Experiment Animal Corp., Shanghai, China) were used in our study. Mouse xenograft models of MDA-MB-231, 4T1, and SK-BR-3 cells were produced by the subcutaneous injection of 5 × 10^6 cells (suspended in 150 μL PBS) into the right axilla of each mouse. The mice were used in subsequent experiments when tumor diameter reached 0.5-0.9 cm. The study protocol was approved by the institutional review board and by the Experimental Animal Center of Ruijin Hospital affiliated to the School of Medicine of Shanghai Jiao Tong University.
Three days before micro-SPECT/CT imaging, 300 μL of 1% Kl solution was administered to mice by oral gavage once a day, and 0.1% Kl was added into the drinking water to block thyroid gland activity. Mice-bearing MDA-MB-231, 4T1, or SK-BR-3 tumors were intravenously injected with 3.7 MBq of ^125I-WT-pHLIP or ^125I-Var3-pHLIP. Each group contained four mice. The mice were anesthetized by isoflurane inhalation, placed in the prone position, and scanned using a four-head SPECT/CT system (U-SPECT/CT, MI-Lab, Netherlands) and dedicated multipinhole apertures with a diameter of 1.5 mm at 1, 2, 4, 24, and 48 h after injection of ^125I-labeled peptides. CT images were acquired after static SPECT imaging (10 min/frame). The images were reconstructed using U-SPECT REC software and analyzed using PMOD software version 3.9 (Switzerland). Regions of interest (ROIs) were drawn in the tumors and organs, including the brain, heart, liver, lungs, kidneys, intestine, and bladder, at various time points. The radioactivity per gram (ID%/g) in the ROIs was measured to obtain the dynamic tumor-to-background ratio (TBR, muscle tissue was used as the background) and the in vivo distribution and kinetics of ^125I-WT-pHLIP and ^125I-Var3-pHLIP in the xenograft models of BC.

[2] = In vitro stability of radiolabeled peptides in serum at 37°C; assay type: in vitro ADME; details: 37°C in serum, radiochemical purity, thin-layer chromatography
Experimental: WT-pHLIP and Var3-pHLIP were labeled with ^125I for in vivo imaging experiments, and Var3-pHLIP was labeled with ^131I for therapeutic efficacy experiments. Radioactive iodine binds to tyrosine residues in pHLIPs. Peptides were dissolved in 200 μL of 0.02 M PBS (pH 7.4) to reach a concentration of 1 mg/mL and mixed with 10 μL of Na^125I (74 MBq) or 20 μL of Na^131I (925 MBq). Chloramine-T (20 μL, 5 mg/mL) was added to the test tubes and mixed for 70 s at room temperature. The reaction was stopped by adding 200 μL of sodium metabisulfite (5 mg/mL). The peptides were eluted in ethanol through a C18 column equilibrated with 20 mL of 100% ethanol and 20 mL of distilled water. The radioactive purity of ^125I-WT-pHLIP, ^125I-Var3-pHLIP, and ^131I-Var3-pHLIP was determined using thin-layer chromatography. Furthermore, the radiochemical purity of ^125I-WT-pHLIP, ^125I-Var3-pHLIP, and ^131I-Var3-pHLIP was measured, and chemical stability was determined at 24 and 48 h at room temperature (25°C) in PBS and at 37°C in serum.

[3] = BALB/c nude, read-out: Distribution, Tumor
[4] = athymic BALB/c nude, bladder, read-out: Distribution, Bladder
[5] = athymic BALB/c nude, brain, read-out: Distribution, Brain
[6] = athymic BALB/c nude, heart, read-out: Distribution, Heart
[7] = athymic BALB/c nude, intestine, read-out: Distribution, Intestine
[8] = athymic BALB/c nude, kidney, read-out: Distribution, Kidney
[9] = athymic BALB/c nude, liver, read-out: Distribution, Liver
[10] = athymic BALB/c nude, lung, read-out: Distribution, Lung
[11] = athymic BALB/c nude, muscle, read-out: Distribution, Muscle

With `CC(C)C[C@H](NC(=O)[C@H](Cc1ccc(O)c(I)c1)NC(=O)[C@H](C)NC(=O)[C@H](CCCNC(=N)N)NC(=O)[C@H](Cc1c[nH]c2ccccc12)NC(=O)[C@@H]1CCCN1C(=O)[C@H](CC(N)=O)NC(=O)[C@H](CCC(N)=O)NC(=O)[C@H](CC(=O)O)NC(=O)[C@H](CC(=O)O)NC(=O)[C@H](CS)NC(=O)[C@H](C)N)C(=O)N[C@@H](CC(=O)O)C(=O)N[C@@H](CC(C)C)C(=O)N[C@@H](CC(C)C)C(=O)N[C@@H](Cc1ccccc1)C(=O)N1CCC[C@H]1C(=O)N[C@H](C(=O)N[C@@H](CC(=O)O)C(=O)N[C@H](C(=O)N[C@@H](CC(C)C)C(=O)N[C@@H](CC(C)C)C(=O)N[C@@H](CC(C)C)C(=O)N[C@@H](CC(=O)O)C(=O)N[C@@H](CC(C)C)C(=O)N[C@@H](CC(C)C)C(=O)N[C@@H](Cc1c[nH]c2ccccc12)C(=O)N[C@@H](CCCCN)C(=O)O)[C@@H](C)O)[C@@H](C)O` [125I-Var3-pHLIP] (HELM PEPTIDE1{A.C.D.D.Q.N.P.W.R.A.[O=C([C@H](Cc1ccc(O)c(I)c1)N[*:1])[*:2]].L.D.L.L.F.P.T.D.T.L.L.L.D.L.L.W.K}$$$$V2.0; N-terminus and C-terminus assumed) the tissue uptake at 4 h [1, 3] was 3.4 ± 0.73 %ID/g, the tissue uptake at 24 h [1, 3] was 0.21 ± 0.07 %ID/g and the tissue uptake at 48 h [1, 3] was 0.12 ± 0.04 %ID/g. It also gave a tissue uptake at 1 h [1, 4] of 33.7 ± 21.1 %ID/g, a tissue uptake at 2 h [1, 4] of 24.9 ± 10.8 %ID/g and a tissue uptake at 4 h [1, 4] of 42.7 ± 17.6 %ID/g. It also gave a tissue uptake at 24 h [1, 4] of 2.83 ± 1.65 %ID/g, a tissue uptake at 48 h [1, 4] of 0.21 ± 0.13 %ID/g and a tissue uptake at 1 h [1, 5] of 1.44 ± 0.24 %ID/g. The tissue uptake at 2 h [1, 5] was 1.32 ± 0.49 %ID/g, the tissue uptake at 4 h [1, 5] was 1.04 ± 0.47 %ID/g and the tissue uptake at 24 h [1, 5] was 0.16 ± 0.1 %ID/g. It also gave a tissue uptake at 48 h [1, 5] of 0.13 ± 0.09 %ID/g, a tissue uptake at 1 h [1, 6] of 14.4 ± 2.44 %ID/g and a tissue uptake at 2 h [1, 6] of 11 ± 2.39 %ID/g. The tissue uptake at 4 h [1, 6] was 8.21 ± 2.03 %ID/g, the tissue uptake at 24 h [1, 6] was 0.36 ± 0.16 %ID/g and the tissue uptake at 48 h [1, 6] was 0.17 ± 0.05 %ID/g. The tissue uptake at 1 h [1, 7] was 3.65 ± 0.64 %ID/g, the tissue uptake at 2 h [1, 7] was 3.63 ± 1.19 %ID/g and the tissue uptake at 4 h [1, 7] was 3.23 ± 0.7 %ID/g. It also gave a tissue uptake at 24 h [1, 7] of 0.28 ± 0.15 %ID/g, a tissue uptake at 48 h [1, 7] of 0.14 ± 0.11 %ID/g and a tissue uptake at 1 h [1, 8] of 7.98 ± 3.12 %ID/g. The tissue uptake at 2 h [1, 8] was 7.97 ± 2.23 %ID/g, the tissue uptake at 4 h [1, 8] was 4.99 ± 2.04 %ID/g and the tissue uptake at 24 h [1, 8] was 0.39 ± 0.3 %ID/g. It also gave a tissue uptake at 48 h [1, 8] of 0.2 ± 0.13 %ID/g, a tissue uptake at 1 h [1, 9] of 14.9 ± 3.55 %ID/g and a tissue uptake at 2 h [1, 9] of 13.2 ± 2.28 %ID/g. For the same compound, the tissue uptake at 4 h [1, 9] was 12.6 ± 3.61 %ID/g, the tissue uptake at 24 h [1, 9] was 0.6 ± 0.16 %ID/g and the tissue uptake at 48 h [1, 9] was 0.23 ± 0.04 %ID/g. It also gave a tissue uptake at 1 h [1, 10] of 13.8 ± 3.09 %ID/g, a tissue uptake at 2 h [1, 10] of 11.3 ± 3.09 %ID/g and a tissue uptake at 4 h [1, 10] of 9.4 ± 2.45 %ID/g. It also gave a tissue uptake at 24 h [1, 10] of 0.48 ± 0.15 %ID/g, a tissue uptake at 48 h [1, 10] of 0.19 ± 0.1 %ID/g and a tissue uptake at 1 h [1, 11] of 1.41 ± 0.61 %ID/g. The tissue uptake at 2 h [1, 11] was 1.03 ± 0.19 %ID/g, the tissue uptake at 4 h [1, 11] was 0.8 ± 0.26 %ID/g and the tissue uptake at 24 h [1, 11] was 0.06 ± 0.04 %ID/g. It also gave a tissue uptake at 48 h [1, 11] of 0.03 ± 0.03 %ID/g, a tissue uptake at 1 h ([1]; athymic BALB/c nude, read-out: Distribution, Tumor) of 4.26 ± 1.24 %ID/g and a stability ([2]; 24 h) of 83.2%. It also gave a stability ([2]; 48 h) of 82.6%.
